Our source for the Ki and Km values is publication PMC10564941, “A morpheein equilibrium regulates catalysis in phosphoserine phosphatase SerB2 from Mycobacterium tuberculosis” (Communications Biology, 2023).

Series [1] concerns the target T1, MtSerB2 (phosphoserine phosphatase SerB2) (Mycobacterium tuberculosis, UniProt O53289).
T1 construct: full-length dimer fraction, His-tag cleaved
In words: steady-state kinetics, malachite green phosphatase assay; SEC-UV/SAXS dimer-to-trimer shift. Type of series: biochemical.

Series [2] relates to N[C@@H](COP(=O)(O)O)C(=O)O. In words: purified protein. As to conditions: Mg2+ ([…] MgCl2 in assay) active site; uncompetitive substrate inhibition.

T1 sequence (O53289 whole entry): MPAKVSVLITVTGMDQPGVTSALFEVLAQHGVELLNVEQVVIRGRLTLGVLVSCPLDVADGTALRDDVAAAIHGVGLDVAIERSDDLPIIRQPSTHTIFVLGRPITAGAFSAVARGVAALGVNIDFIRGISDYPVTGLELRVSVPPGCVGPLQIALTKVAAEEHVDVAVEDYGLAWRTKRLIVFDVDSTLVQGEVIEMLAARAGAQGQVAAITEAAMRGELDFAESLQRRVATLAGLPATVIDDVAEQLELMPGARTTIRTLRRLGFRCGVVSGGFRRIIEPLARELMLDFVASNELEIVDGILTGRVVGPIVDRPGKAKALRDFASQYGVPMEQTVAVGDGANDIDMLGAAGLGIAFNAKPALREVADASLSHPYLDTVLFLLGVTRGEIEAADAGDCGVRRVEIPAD

`N[C@@H](CO)C(=O)O` [L-Ser]: in series [1], the inhibition constant Ki (commonly the dissociation constant of the complex between target and ligand, obtained from inhibition or displacement) amounted to 22 ± 5.3 µM.

On to “MtSerB2 (phosphoserine phosphatase SerB2) (Mycobacterium tuberculosis H37Rv)”, for which, in series [2], the Michaelis constant (Km) (in general, the substrate concentration at which the rate is half of its maximum) amounted to 480 ± 170 µM.
